Each structure is given as a SMILES string. ≈ marks a conversion by molar mass, not a printed value.

Experiment [1] can be described thus: hydroxy radical scavenging, orthophenanthroline Fe2+ oxidation method. It is filed as biochemical. On the procedure: The first extract of lingonberry from Example 7, containing 5.2 wt % of anthocyanin, 22.3 wt % of proanthocyanin, and 0.5 wt % of resveratrol, was dissolved in double-distilled water and diluted into solutions in serial concentrations of 0.5, 0.25, 0.125, 0.0625, 0.03125, 0.015625, and 0.0078125 mg/ml. Ascorbic acid was likewise diluted to serial concentrations of 2, 1, 0.5, 0.25, 0.125, and 0.0625 mg/ml. The anti-oxidation effect of lingonberry extracts was confirmed by determining the hydroxyl radical (.OH) and the scavenging effect of the test drug on the hydroxy radical using the orthophenanthroline Fe^2+ oxidation method.
The total reaction volume was 4.7 ml, and thus the final concentrations of ascorbic acid solution were 0.851, 0.426, 0.213, and 0.106 mg/ml, while the final concentrations of lingonberry extract were 0.106, 0.053, 0.027, 0.013 mg/ml. Measurements were obtained for five samples in each group, and the scavenging rates of .OH were calculated and averaged. In order to verify the reliability of this method, ascorbic acid, a known .OH scavenging agent was used as a positive control when evaluating the scavenging effect of the lingonberry extract on hydroxy radicals during the experiment.
In the reaction system of these experiments, the aqueous solution of lingonberry extract could bind with hydroxy radicals generated in the Fenton reaction, thus reducing oxidation of Fe^2+ by hydroxy radicals. Its effect on scavenging hydroxy radicals was evaluated by determining the absorbance value of the reaction system.

The next experiment relates to yeast. The conditions noted are these: by activating Sir2 enzymatic expression; cited from earlier work.

For the compound `O=C1O[C@H]([C@@H](O)CO)C(O)=C1O` [ascorbic acid], the “•OH scavenging rate (d)” value came out at 24.44 ± 2.32 in experiment [1] (final concentration 0.106 mg/ml), 25.55 ± 2.10 in experiment [1] (final concentration 0.213 mg/ml), 40.49 ± 1.33 in experiment [1] (final concentration 0.426 mg/ml) and 91.92 ± 0.77 in experiment [1] (final concentration 0.851 mg/ml). For the same compound, the “IC50, hydroxy radical scavenging” value in experiment [1] (orthophenanthroline Fe2+ oxidation method) amounted to 307.8 µg/mL (≈ 1750 µM).

`Oc1ccc(C=Cc2cc(O)cc(O)c2)cc1` [resveratrol]: the “increase of life span” value in the experiment with yeast is on record as “about 70%”.

(Values after patent US7939111B2, “Lingonberry extract, methods of preparing, and uses thereof” (Beijing Gingko-Group Biological Technology Co., Ltd., priority 2007, dated 2011).)
